Laboratory results: patent US20260070945A1, “MACROCYCLIC IMMUNOMODULATORS” (Bristol-Myers Squibb Company, priority 2022, published 2026)
Where a SMILES comes first, the peptide text is derived from it. Bridges are numbered along the chain shown (N, C = ends). [ ]: non-standard residue; d: D form. The star is where a group is joined. ξ: configuration not given here. Phe(4-COOH) = N[C@@H](Cc1ccc(C(=O)O)cc1)C(=O)O; Bip = N[C@@H](Cc1ccc(-c2ccccc2)cc1)C(=O)O; Phe(3-Me) = Cc1cccc(C[C@H](N)C(=O)O)c1; 4Pal = N[C@@H](Cc1ccncc1)C(=O)O; Cha = N[C@@H](CC1CCCCC1)C(=O)O; Ile(3ξ) = CCC(C)[C@H](N)C(=O)O; Thr(3ξ) = CC(O)[C@H](N)C(=O)O; NMeS = CN[C@@H](CO)C(=O)O; Carboxymethyl = O=C(O)C*; NMeA = CN[C@@H](C)C(=O)O; Aun = NCCCCCCCCCCC(=O)O; Dab = NCC[C@H](N)C(=O)O; AEEA = NCCOCCOCC(=O)O; Sar = CNCC(=O)O

biological target: T1, PD-1/PD-L1 interaction (PE-labeled human PD-L1-Ig binding to Jurkat cell line over-expressing human PD-1) (Homo sapiens, UniProt Q15116); assay: Jurkat-PD-1 Cell Binding High-Content Screening Assay (CBA); settings: Jurkat-hPD-1 cells, PE-labeled PD-L1-Ig 20 nM final; read-out: Jurkat HPD1 PDL1 IC50
T1 construct: expressed in transfected cells; host or cells: Jurkat
Procedure, shortened: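 Binding of 20 nM (final) PE-tagged PD-L1-Ig to compound-pretreated Jurkat-hPD-1 cells was measured by high-content imaging after 1 h. Pretreatment ran 2 h at 37 °C in DMEM with 10% fetal calf serum.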

T1 sequence (Q15116 25-288): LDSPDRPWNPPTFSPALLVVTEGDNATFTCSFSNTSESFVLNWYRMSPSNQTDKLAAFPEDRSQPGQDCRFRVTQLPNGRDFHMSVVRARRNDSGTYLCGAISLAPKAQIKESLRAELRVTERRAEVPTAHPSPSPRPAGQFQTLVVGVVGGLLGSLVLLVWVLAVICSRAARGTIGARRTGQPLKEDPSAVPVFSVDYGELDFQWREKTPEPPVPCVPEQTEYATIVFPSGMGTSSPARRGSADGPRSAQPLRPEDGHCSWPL

| IC50 [nM] | SMILES |
| --- | --- |
| 260 | CC(=O)NCCCC[C@@H]1NC(=O)[C@H](C(C)C)NC(=O)[C@H](CC2CCCCC2)NC(=O)[C@H](CCN)NC(=O)[C@@H](CC(C)C)NC(=O)[C@H](C)N(C)C(=O)[C@H](Cc2ccc(O)cc2)NC(=O)[C@H](Cc2ccc(-c3ccccc3)cc2)NC(=O)[C@H](C(C)C)NC(=O)[C@H](Cc2cccc(C)c2)NC(=O)[C@H](CC(=O)O)NC(=O)[C@H](Cc2ccc(OCC(=O)O)cc2)NC(=O)[C@H](CC(N)=O)NC(=O)CSC[C@@H](C(=O)N(C)CC(=O)NCCCCCCCCCCC(=O)O)NC1=O [Example 2271] ({CH2CO}-NY(Carboxymethyl)D[Phe(3-Me)]V[Bip]Y[NMeA][dL][Dab][Cha]VK(Ac)C[Sar][Aun]-OH; thioether N-14) |
| 231 | CC(=O)NCCCC[C@@H]1NC(=O)[C@H](C(C)C)NC(=O)[C@H](CC2CCCCC2)NC(=O)[C@H](CCN)NC(=O)[C@@H](CC(C)C)NC(=O)[C@H](C)N(C)C(=O)[C@H](Cc2ccc(O)cc2)NC(=O)[C@H](Cc2ccc(-c3ccccc3)cc2)NC(=O)[C@H](C(C)C)NC(=O)[C@H](Cc2cccc(C)c2)NC(=O)[C@H](CC(=O)O)NC(=O)[C@H](Cc2ccc(OCC(=O)O)cc2)NC(=O)[C@H](Cc2cnc[nH]2)NC(=O)CSC[C@@H](C(=O)N(C)CC(=O)NCCCCCCCCCCC(=O)O)NC1=O [Example 2272] ({CH2CO}-HY(Carboxymethyl)D[Phe(3-Me)]V[Bip]Y[NMeA][dL][Dab][Cha]VK(Ac)C[Sar][Aun]-OH; thioether N-14) |
| 321 | CC(=O)NCCCC[C@@H]1NC(=O)[C@H](C(C)C)NC(=O)[C@H](CC2CCCCC2)NC(=O)[C@H](CCN)NC(=O)[C@@H](CC(C)C)NC(=O)[C@H](C)N(C)C(=O)[C@H](Cc2ccc(O)cc2)NC(=O)[C@H](Cc2ccc(-c3ccccc3)cc2)NC(=O)[C@H](C(C)C)NC(=O)[C@H](Cc2cccc(C)c2)NC(=O)[C@H](CC(=O)O)NC(=O)[C@H](Cc2ccc(OCC(=O)O)cc2)NC(=O)[C@H](CCCNC(=N)N)NC(=O)CSC[C@@H](C(=O)N(C)CC(=O)NCCCCCCCCCCC(=O)O)NC1=O [Example 2273] ({CH2CO}-RY(Carboxymethyl)D[Phe(3-Me)]V[Bip]Y[NMeA][dL][Dab][Cha]VK(Ac)C[Sar][Aun]-OH; thioether N-14) |
| 85.5 | CC(=O)NCCCC[C@@H]1NC(=O)[C@H](C(C)C)NC(=O)[C@H](CC2CCCCC2)NC(=O)[C@H](CCN)NC(=O)[C@@H](CC(C)C)NC(=O)[C@H](C)N(C)C(=O)[C@H](Cc2ccc(O)cc2)NC(=O)[C@H](Cc2ccc(-c3ccccc3)cc2)NC(=O)[C@H](C(C)C)NC(=O)[C@H](Cc2cccc(C)c2)NC(=O)[C@H](CC(=O)O)NC(=O)[C@H](Cc2ccc(OCC(=O)O)cc2)NC(=O)[C@H](C(C)O)NC(=O)CSC[C@@H](C(=O)N(C)CC(=O)NCCCCCCCCCCC(=O)O)NC1=O (stereo partly drawn) [Example 2274] ({CH2CO}-[Thr(3ξ)]Y(Carboxymethyl)D[Phe(3-Me)]V[Bip]Y[NMeA][dL][Dab][Cha]VK(Ac)C[Sar][Aun]-OH; thioether N-14) |
| 282 | CC(=O)NCCCC[C@@H]1NC(=O)[C@H](C(C)C)NC(=O)[C@H](CC2CCCCC2)NC(=O)[C@H](CCN)NC(=O)[C@@H](CC(C)C)NC(=O)[C@H](C)N(C)C(=O)[C@H](Cc2ccc(O)cc2)NC(=O)[C@H](Cc2ccc(-c3ccccc3)cc2)NC(=O)[C@H](C(C)C)NC(=O)[C@H](Cc2cccc(C)c2)NC(=O)[C@H](CC(=O)O)NC(=O)[C@H](Cc2ccc(OCC(=O)O)cc2)NC(=O)[C@H](Cc2ccc(O)cc2)NC(=O)CSC[C@@H](C(=O)N(C)CC(=O)NCCCCCCCCCCC(=O)O)NC1=O [Example 2275] ({CH2CO}-YY(Carboxymethyl)D[Phe(3-Me)]V[Bip]Y[NMeA][dL][Dab][Cha]VK(Ac)C[Sar][Aun]-OH; thioether N-14) |

Further lines, the compound ahead of its results:

| SMILES | IC50 [nM] |
| --- | --- |
| CC(=O)NCCCC[C@@H]1NC(=O)[C@H](C(C)C)NC(=O)[C@H](CC2CCCCC2)NC(=O)[C@H](CCN)NC(=O)[C@@H](CC(C)C)NC(=O)[C@H](C)N(C)C(=O)[C@H](Cc2ccc(O)cc2)NC(=O)[C@H](Cc2ccc(-c3ccccc3)cc2)NC(=O)[C@H](C(C)C)NC(=O)[C@H](Cc2cccc(C)c2)NC(=O)[C@H](CC(=O)O)NC(=O)[C@H](Cc2ccc(OCC(=O)O)cc2)NC(=O)[C@H](Cc2ccncc2)NC(=O)CSC[C@@H](C(=O)N(C)CC(=O)NCCCCCCCCCCC(=O)O)NC1=O [Example 2276] ({CH2CO}-[4Pal]Y(Carboxymethyl)D[Phe(3-Me)]V[Bip]Y[NMeA][dL][Dab][Cha]VK(Ac)C[Sar][Aun]-OH; thioether N-14) | 174 |
| Cc1cccc(C[C@@H]2NC(=O)[C@H](CC(=O)O)NC(=O)[C@H](Cc3ccc(OCC(=O)O)cc3)NC(=O)[C@H](CO)N(C)C(=O)CSC[C@@H](C(=O)NCCOCCOCC(=O)NCCCCCCCCCCC(=O)O)NC(=O)[C@H](CCCNC(=N)N)NC(=O)[C@H](C(C)C)NC(=O)[C@H](CC3CCCCC3)NC(=O)[C@H](CCN)NC(=O)[C@@H](CC(C)C)NC(=O)[C@H](C)N(C)C(=O)[C@H](C(C)C)NC(=O)[C@H](Cc3ccc(-c4ccccc4)cc3)NC(=O)[C@H](CC(C)C)NC2=O)c1 [Example 2277] ({CH2CO}-[NMeS]Y(Carboxymethyl)D[Phe(3-Me)]L[Bip]V[NMeA][dL][Dab][Cha]VRC[AEEA][Aun]-OH; thioether N-14) | 18.7 |
| Cc1cccc(C[C@@H]2NC(=O)[C@H](CC(=O)O)NC(=O)[C@H](Cc3ccc(C(=O)O)cc3)NC(=O)[C@H](Cc3ccc(OCC(=O)O)cc3)NC(=O)CSC[C@@H](C(=O)NCCOCCOCC(=O)NCCCCCCCCCCC(=O)O)NC(=O)[C@H](CCCNC(=N)N)NC(=O)[C@H](C(C)C)NC(=O)[C@H](CC3CCCCC3)NC(=O)[C@H](CCN)NC(=O)[C@@H](CC(C)C)NC(=O)[C@H](CO)N(C)C(=O)[C@H](C(C)C)NC(=O)[C@H](Cc3ccc(-c4ccccc4)cc3)NC(=O)[C@H](CC(C)C)NC2=O)c1 [Example 2278] ({CH2CO}-Y(Carboxymethyl)[Phe(4-COOH)]D[Phe(3-Me)]L[Bip]V[NMeS][dL][Dab][Cha]VRC[AEEA][Aun]-OH; thioether N-14) | 34.2 |
| CCC(C)[C@@H]1NC(=O)[C@H](Cc2ccc(-c3ccccc3)cc2)NC(=O)[C@H](CC(C)C)NC(=O)[C@H](Cc2c[nH]c3ccccc23)NC(=O)[C@H](CC(=O)O)NC(=O)[C@H](Cc2ccc(C(=O)O)cc2)NC(=O)[C@H](Cc2ccc(OCC(=O)O)cc2)NC(=O)CSC[C@@H](C(=O)NCCOCCOCC(=O)NCCCCCCCCCCC(=O)O)NC(=O)[C@H](CCCNC(=N)N)NC(=O)[C@H](C(C)C)NC(=O)[C@H](CC2CCCCC2)NC(=O)[C@H](CCN)NC(=O)[C@@H](CC(C)C)NC(=O)[C@H](CO)N(C)C1=O (stereo partly drawn) [Example 2279] ({CH2CO}-Y(Carboxymethyl)[Phe(4-COOH)]DWL[Bip][Ile(3ξ)][NMeS][dL][Dab][Cha]VRC[AEEA][Aun]-OH; thioether N-14) | 21.1 |
| Cc1cccc(C[C@@H]2NC(=O)[C@H](CC(=O)O)NC(=O)[C@H](Cc3ccc(OCC(=O)O)cc3)NC(=O)[C@H](Cc3ccc(OCC(=O)O)cc3)NC(=O)CSC[C@@H](C(=O)NCCOCCOCC(=O)NCCCCCCCCCCC(=O)O)NC(=O)[C@H](CCCNC(=N)N)NC(=O)[C@H](C(C)C)NC(=O)[C@H](CC3CCCCC3)NC(=O)[C@H](CCN)NC(=O)[C@@H](CC(C)C)NC(=O)[C@H](C)N(C)C(=O)[C@H](Cc3ccc(O)cc3)NC(=O)[C@H](Cc3ccc(-c4ccccc4)cc3)NC(=O)[C@H](CC(C)C)NC2=O)c1 [Example 2280] ({CH2CO}-Y(Carboxymethyl)Y(Carboxymethyl)D[Phe(3-Me)]L[Bip]Y[NMeA][dL][Dab][Cha]VRC[AEEA][Aun]-OH; thioether N-14) | 104 |
